According to EPA's ToxValDB 9.5 (doi:10.2903/j.efsa.2018.5378):

Assays:
Cyprinus carpio = settings: acute; duration: 96 hours; mortality
Neomysis kadiakensis = settings: chronic/long-term; duration: 28 days; reproduction
Apis mellifera = settings: acute, duration: 48 hours, mortality
Pimephales promelas = settings: chronic/long-term, duration: 33 days
Hypoaspis aculeifer = settings: chronic/long-term; duration: 14 days; reproduction
Daphnia magna = settings: chronic/long-term; duration: 21 days; reproduction
Oncorhynchus mykiss = settings: acute; duration: 96 hours; mortality
Tagia sp. = settings: chronic/long-term; duration: 56 days; reproduction
[1] = chronic, duration: 2 years, histopathology: neoplastic

Row | Compound | LC50 (Cyprinus carpio) | NOEC (Neomysis kadiakensis) | LD50 (Colinus virginianus; acute, oral, mortality) | NOEL (Colinus virginianus; reproduction developmental) | LD50 (Apis mellifera; dermal) | LD50 (Apis mellifera; oral, unspecified) | LD50 (Rattus norvegicus; acute, oral, mortality) | NOAEL (Rattus norvegicus; [1]) | NOAEL (Rattus norvegicus; reproduction developmental, no effects) | NOEC (Pimephales promelas; development) | NOEC (Hypoaspis aculeifer) | NOEC (Daphnia magna) | LC50 (Oncorhynchus mykiss) | NOEC (Pimephales promelas; other) | NOEC (Tagia sp.)
1 | COc1c(Cl)ccc(-c2nc(C(=O)OCc3ccccc3)c(Cl)c(N)c2F)c1F [Florpyrauxifen-benzyl] | > 0.0414 µg/mL | 0.0078 mg/L | > 2250 mg/kg-day | 87.2 mg/kg-day | > 100 µg/piece | > 105 µg/piece | > 5000 mg/kg-day | 50 mg/kg-day | 300 mg/kg-day | 0.037 mg/L | – | – | – | – | –
2 | COc1c(Cl)ccc(-c2nc(C(=O)O)c(Cl)c(N)c2F)c1F [Florpyrauxifen] | – | – | – | – | – | – | – | 50 mg/kg-day | – | – | 25 mg/kg | 25 mg/L | > 100 µg/mL | 29.8 mg/L | 213 mg/kg
